Our source for the S/N and s/n ratio values is publication PMC10977697 (PLOS ONE, 2024).

Bridges are numbered along the chain shown (N, C = ends). Where no end group is shown, it is not given here.

For the first assay, the system named is ApoL1. Put plainly: Spot phage ELISA, ApoL1. Type of assay: binding, human. Conditions: ratio of signal for target protein over BSA background. Background: ELISA stands for enzyme-linked immunosorbent assay.
Consider “GCKFKAHSCKQDSDCLAGCVCSGQDPGCG (also: bicyclic or more (positions not given here)) [ApoL1 EET I-II 30]”, for which the S/N came out at 18.9. Consider “GCYYKCKQDSDCLAGCVCRTSNMCG (also: bicyclic or more (positions not given here)) [ApoL1 EET I-II 17]”, for which the S/N worked out at 39.0.

As to “GCMFQMHFCKQDSDCLAGCVCGMSDCCG [ApoL1 EET I-II 27]”, the S/N is 23.7. As for “GCKFKSFTCKQDSDCLAGCVCWDQDTCG (also: bicyclic or more (positions not given here)) [ApoL1 EET I-II 7]”, the S/N was 44.3. The same measure, in the same setting: under “GCSWKCKQDSDCLAGCVCKMSQQCG (also: bicyclic or more (positions not given here)) [ApoL1 EET I-II 45]” stands 4.7. Same read-out and setting: with “GCMFKQRHCKQDSDCLAGCVCSQGQPCG (also: bicyclic or more (positions not given here)) [ApoL1 EET I-II 5]” the figure was 47.1; with “GCKFKWHFCKQDSDCLAGCVCQPHETCG (also: bicyclic or more (positions not given here)) [ApoL1 EET I-II 36]”, 12.4. As for “GCRFRLWAMKSHCKQDSDCLAGCVCSDYSDCG (also: bicyclic or more (positions not given here)) [ApoL1 EET I-II 13]”, the S/N is recorded as 40.4. With “GCRFREMFYKVTCKQDSDCLAGCVCSHEANCG (also: bicyclic or more (positions not given here)) [ApoL1 EET I-II 8]”, the S/N is listed as 43.8.

Regarding “GCHYRRNRWEQACKQDSDCLAGCVCQGMPKCG (also: bicyclic or more (positions not given here)) [ApoL1 EET I-II 18]”, the S/N came to 38.3.

With “GCKFKHWYCKQDSDCLAGCVCCPPNHYG [ApoL1 EET I-II 11]”, the S/N turned out to be 41.1.

A further assay has as its system PCSK9.
Assay: not given
The assay is classed as binding, human. The note with it: ratio of signal for target protein over BSA background.
On to “GPTQSNYGMCGGIGYSGPTVCASGTTCQVLYPTTSRCLPGAS (also: bicyclic or more (positions not given here)) [PCSK9FL_CBD1]”, for which the s/n ratio is on record as 17.7. “GPTQSKYGMCGGIGYSGPTVCASGTTCQVLDPYTSQCLPGAS (disulfide 10-27, 21-37 (inferred)) [PCSK9FL_CBD2]”: the s/n ratio is given as 26.8.

The assay is the same for the next values; noted with them: spot phage ELISA signal-to-noise on PCSK9.
“GPTQSTYGQCGGIGYSGPTVCASGTTCQVLGPALSWCLPGAS (disulfide (positions not given here)) [PCSK9 CBD 9]” had a S/N of 5.2.

For “GPTQSNYGQCGGIGYSGPTVCASGTTCQVLWPAMSWCLPGAS (disulfide (positions not given here)) [PCSK9 CBD 15]”, the S/N was determined as 14.0. Substance “GPTQSEYGMCGGIGYSGPTVCASGTTCQVLDPTTSQCLPGAS (disulfide (positions not given here)) [PCSK9 CBD 10]” came in with a S/N of 7.2. The same measure, in the same setting: under “GPTQSQFGMCGGIGYSGPTVCASGTTCQVLDPTTSQCLPGAS (disulfide (positions not given here)) [PCSK9 CBD 2]” stands 2.5; under “GPTQSDYGMCGGIGYSGPTVCASGTTCQVLDPYTSQCLPGAS (disulfide (positions not given here)) [PCSK9 CBD 28]”, 14.2; under “GCGYWWVQWFCKQDSDCLAGCVCGPNGFCD (disulfide (positions not given here)) [PCSK9 EET I-II 18]”, 20.1. “GCGYWYRVWFCKQDSDCLAGCVCQEPGPCG (disulfide (positions not given here)) [PCSK9 EET I-II 3]”: the S/N was determined as 6.4. Same read-out and setting: with “GPTHSTYGQCGGIGYSGQSVCASGTTCQVLWAALSWCLPGAS (disulfide (positions not given here)) [PCSK9 CBD 12]” the figure was 7.8. Consider “GPAHSLFGMCGGIDYSGPTVCASGTTCHVLNPTTSHCLPRAS (disulfide (positions not given here)) [PCSK9 CBD 8]”, for which the S/N is recorded as 5.0.

In turn, “GPTQSEYGMCGGIGYSGPTVCASGTTCQVLDPMTSQCLPGAS (disulfide (positions not given here)) [PCSK9 CBD 3]” showed a S/N of 2.6. Same read-out and setting: with “GPTQSTYGQCGGIGYSGPTVCASGTTCQVLWPALSWCLPGAS (disulfide (positions not given here)) [PCSK9 CBD 26]” the figure was 21.5; with “GPTQSTCGQCGGIGYSGPTVCASGTTCQVLWPTLSWCLPGAS (disulfide (positions not given here)) [PCSK9 CBD 27]”, 20.8; with “GCGYWFKMWFCKQDSDCLAGCVCYPGASCG (disulfide (positions not given here)) [PCSK9 EET I-II 12]”, 15.5. “GCGYWWKHWFCKQDSDCLAGCVCGPNGFCG (disulfide (positions not given here)) [PCSK9 EET I-II 10]” gave a S/N of 12.1. Same read-out and setting: with “GCQQGYWWWYWFCKQDSDCLAGCVCGPNGFCG (disulfide (positions not given here)) [PCSK9 EET I-II 13]” the figure was 26.0.

“GCGYWYRIWFCKQDSDCLAGCVCGPNGFCG (disulfide (positions not given here)) [PCSK9 EET I-II 9]” yielded a S/N of 9.4. As for “GPTQSEYGMCGGIGYSGPTVCASGTTCQVLDPTTSQCLPGAS (disulfide (positions not given here)) [PCSK9 CBD 17]”, the S/N was found to be 11.3. Still for that read-out and setting: with “GCWWWGRIHCKQDSDCLAGWGQHCG (disulfide (positions not given here)) [PCSK9 EET I-II 15]” the figure was 44.9; with “GCGYWWRQWFCKQGSDCLAGCVCGPNGFCG (disulfide (positions not given here)) [PCSK9 EET I-II 7]”, 20.9. “GCYHGYWYITWFCKQDSDCLAGCVCSQDEQCG (disulfide (positions not given here)) [PCSK9 EET I-II 14]” registered a S/N of 17.0.

Take “GPTQSHYGLCGGIGYSGPTVCASGTTCQVLSPEFSQCLPGAS (disulfide (positions not given here)) [PCSK9 CBD 13]”: the S/N is reported as 8.0.

With “GCGYWFIQWFCKQDSDCLAGCVCGPNGFCG (disulfide (positions not given here)) [PCSK9 EET I-II 1]”, the S/N amounted to 21.8. Same read-out and setting: with “GCGWWYRQWFCKQDSDCLAGCVCLETPECG (disulfide (positions not given here)) [PCSK9 EET I-II 16]” the figure was 15.7.

The substance “GCNLGYWWKQWFCKQDSDCLAGCVCERPRDCG (disulfide (positions not given here)) [PCSK9 EET I-II 2]” came in with a S/N of 6.1. In turn, “GCGYWWKQWFCKQDSDCLAGCVCGPNGFCG (disulfide (positions not given here)) [PCSK9 EET I-II 17]” had a S/N of 17.6. In turn, “GCSWVPYWCKQDSDCLAGCVCWEMVWCD (disulfide (positions not given here)) [PCSK9 EET I-II 6]” had a S/N of 7.0. Still for that read-out and setting: under “GPTQSLFGMCGGIGYSGPTVCASGTTCQVLYPTTSRCLPGAS (disulfide (positions not given here)) [PCSK9 CBD 20]” stands 18.0. Same read-out and setting: with “GCGYWFKMWFCKQDSDCLAGCVCYPGASCG (disulfide (positions not given here)) [PCSK9 EET I-II 8]” the figure was 9.7. The same measure, in the same setting: under “GPTQSTYGQCGGIGYSGPTVCASGTTCQVLWPALSWCLPGAS (disulfide (positions not given here)) [PCSK9 CBD 22]” stands 15.0.

Substance “GPTQSMCGMCGGIGYSGPTVCASGTTCQVLDPHTSQCLPGAS (disulfide (positions not given here)) [PCSK9 CBD 18]” registered a S/N of 14.0. In turn, “GPTQSNYGMCGGIGYSGPTVCASGTTCQVLqPSTSRCLPGAS (disulfide) [PCSK9 CBD 16]” showed a S/N of 11.6. “GCGYWWSTWFCKQDSDCLAGCVCGPNGFCG (disulfide (positions not given here)) [PCSK9 EET I-II 4]” yielded a S/N of 15.0. The same measure, in the same setting: under “GPTQSTYGRCGGIGYSGPTVCASGTTCQVLWPALSWCLPGAS (disulfide (positions not given here)) [PCSK9 CBD 4]” stands 3.7; under “GCGYWFYEWFCKQDSDCLAGCVCDPNGFCG (disulfide (positions not given here)) [PCSK9 EET I-II 20]”, 9.0. Same read-out and setting: under “GCHEGYWWRQWFCKQDSDCLAGCVCGPNGFCG (disulfide (positions not given here)) [PCSK9 EET I-II 19]” stands 20.5; under “GPTQSVHGMCGGIGYSGPTVCASGTTCQVLDPFTSQCLPGAS (disulfide (positions not given here)) [PCSK9 CBD 24]”, 14.8. In turn, “GPTQSYGQCGGIGYSGPTVCASGTTCQVLWPQVSWCLPGAST (disulfide (positions not given here)) [PCSK9 CBD 6]” gave a S/N of 2.9. “GPTQSNYGMCGGIGYSGPTVCASGTTCQVLYPTTSRCLPGAS (disulfide (positions not given here)) [PCSK9 CBD 1]” yielded a S/N of 17.7. On the same count and under the same terms, with “GPTQSVYGMCGGIGYSGPTVCASGTTCQVLDPTTSQCLPGAS (disulfide (positions not given here)) [PCSK9 CBD 25]” the figure was 14.9; with “GPTQSAYGQCGGIGYSGPTVCASGTTCQVLWPQVSWCLPGAS (disulfide (positions not given here)) [PCSK9 CBD 23]”, 13.9; with “GPTQSPGGICGGIGYSGPTVCASGTTCQVLSPEYSQCLPGAS (disulfide (positions not given here)) [PCSK9 CBD 19]”, 15.8. Still for that read-out and setting: with “GPTQSMYGMCGGIGYSGPTVCASGTTCQVLDPNTSQCLPGAS (disulfide (positions not given here)) [PCSK9 CBD 11]” the figure was 6.9; with “GPTQSNYGQCGGIGYSGPTVCASGTTCQVLqPAMSWCLPGAS (disulfide) [PCSK9 CBD 21]”, 18.7; with “GCGYWWVQWFCKQDSDCLAGCVCGPNGFCD (disulfide (positions not given here)) [PCSK9 EET I-II 11]”, 19.1.
